Source: US10174024B2, “5H-pyrido[3,2-B]indole compounds as anticancer agents” (BRISTOL-MYERS SQUIBB COMPANY, priority 2015, dated 2019)
pIC50: −log10 of the molar value.

Biological target: BRD4 (Homo sapiens, UniProt O60885)
Test: Time Resolved Fluorescence Resonance Energy Transfer (TR-FRET) binding assay, FRET BRD4
Details: one of the FRET assays described (BRD4 bromodomain construct not specified); read-out: FRET BRD4 IC50

SMILES | pIC50
[2H]C([2H])([2H])c1nnn(C)c1-c1cnc2c3c(N4CCS(=O)(=O)CC4)ccc(S(C)(=O)=O)c3n([C@H](c3ccccc3)C3CCOCC3)c2c1 [Example 24, 4-{6-Methanesulfonyl-3-[4-(^2H3)methyl-1-methyl-1H-1,2,3-triazol-5-yl]-5-[(S)-oxan-4-yl(phenyl)methyl]-5H-pyrido[3,2-b]indol-9-yl}-1λ^6-thiomorpholine-1,1-dione] | > 8.30
Cc1nnn(C)c1-c1cnc2c3cc(N4CCNCC4)ccc3n([C@H](c3ccccc3)C3CCOCC3)c2c1 [Example 13, 1-[3-(Dimethyl-1H-1,2,3-triazol-5-yl)-5-[(S)-oxan-4-yl(phenyl)methyl]-5H-pyrido[3,2-b]indol-8-yl]piperazine] | > 8.30
Cc1nnn(C)c1-c1cnc2c3ccc(-c4cnn(C(C)C)c4)cc3n([C@H](c3ccccc3)C3CCOCC3)c2c1 [Example 16, 1,4-Dimethyl-5-{5-[(S)-oxan-4-yl(phenyl)methyl]-7-[1-(propan-2-yl)-1H-pyrazol-4-yl]-5H-pyrido[3,2-b]indol-3-yl}-1H-1,2,3-triazole] | > 8.30
[2H]C([2H])([2H])c1nnn(C)c1-c1cnc2c3cc(N4CCc5ccccc5C4)ccc3n([C@H](c3ccc(F)cc3)C3CCOCC3)c2c1 [Example 43, 2-{5-[(S)-(4-Fluorophenyl)(oxan-4-yl)methyl]-3-[4-(^2H3)methyl-1-methyl-1H-1,2,3-triazol-5-yl]-5H-pyrido[3,2-b]indol-8-yl}-1,2,3,4-tetrahydroisoquinoline] | > 8.30
[2H]C([2H])([2H])c1nnn(C)c1-c1cnc2c3ccc(C4(O)CCNCC4)c(F)c3n([C@H](c3ccccc3)C3CCOCC3)c2c1 [Example 53, 4-{6-Fluoro-3-[4-(^2H3)methyl-1-methyl-1H-1,2,3-triazol-5-yl]-5-[(S)-oxan-4-yl(phenyl)methyl]-5H-pyrido[3,2-b]indol-7-yl}piperidin-4-ol] | > 9.00
Cc1nnn(C)c1-c1cnc2c3ccc(-c4nnn[nH]4)cc3n([C@H](c3ccccc3)C3CCOCC3)c2c1 [Example 11, 5-[3-(Dimethyl-1H-1,2,3-triazol-5-yl)-5-[(S)-oxan-4-yl(phenyl)methyl]-5H-pyrido[3,2-b]indol-7-yl]-1H-1,2,3,4-tetrazole] | > 9.00
[2H]C([2H])([2H])c1nnn(C)c1-c1ccc2c3ncc(-c4c(C([2H])([2H])[2H])nnn4C)cc3n(C(c3ncccc3F)C3CCOCC3)c2c1 (stereo not shown) [Example 28, 2-({3,7-Bis[4-(^2H3)methyl-1-methyl-1H-1,2,3-triazol-5-yl]-5H-pyrido[3,2-b]indol-5-yl}(oxan-4-yl)methyl)-3-fluoropyridine] | > 8.30
[2H]C([2H])([2H])c1nnn(C)c1-c1cnc2c3c(N4CCCS4(=O)=O)ccc(S(C)(=O)=O)c3n([C@H](c3ccc(F)cc3)C3CCOCC3)c2c1 [Example 33, 2-{5-[(S)-(4-Fluorophenyl)(oxan-4-yl)methyl]-6-methanesulfonyl-3-[4-(^2H3)methyl-1-methyl-1H-1,2,3-triazol-5-yl]-5H-pyrido[3,2-b]indol-9-yl}-1λ^6,2-thiazolidine-1,1-dione] | > 9.00
[2H]C([2H])([2H])c1nnn(C)c1-c1cnc2c3ccc(N4CCNC4=O)c(F)c3n([C@H](c3ccccc3)C3CCOCC3)c2c1 [Example 59, 1-{6-Fluoro-3-[4-(^2H3)methyl-1-methyl-1H-1,2,3-triazol-5-yl]-5-[(S)-oxan-4-yl(phenyl)methyl]-5H-pyrido[3,2-b]indol-7-yl}imidazolidin-2-one] | > 8.30
Cc1nnn(C)c1-c1cnc2c3c(N4CCN(C5COC5)CC4)ccc(S(C)(=O)=O)c3n([C@H](c3ccccc3)C3CCOCC3)c2c1 [Example 23, 1-[3-(Dimethyl-1H-1,2,3-triazol-5-yl)-6-methanesulfonyl-5-[(S)-oxan-4-yl(phenyl)methyl]-5H-pyrido[3,2-b]indol-9-yl]-4-(oxetan-3-yl)piperazine] | > 8.30
